Where “and” joins values, the source holds several entries; their conditions need not be identical. Equal values may be shown once. Toxic doses and inconclusive results are not listed.
Tested on: P388 leukemia ip, CD2F1 mice, survival T/C
Test: NCI In Vivo Anticancer Drug Screen. Data for tumor model P388 Leukemia (intraperitoneal) in CD2F1 (CDF1) mice
Details: endpoint: median survival time, higher = longer survival
In short: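 Mice carrying the transplanted tumor received test compound or vehicle. Survival was recorded in each group, and the value is the treated-group measurement divided by that of the vehicle-treated control group.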

[1] = dose: 50.0 mg/kg/injection, schedule: Q01DX009 (ip), vehicle: saline
[2] = dose: 100.0 mg/kg/injection, schedule: Q01DX009 (ip), vehicle: saline
[3] = dose: 200.0 mg/kg/injection, schedule: Q01DX009 (ip), vehicle: saline
[4] = dose: 50.0 mg/kg/injection, schedule: Q01DX009 (ip), vehicle: saline with Tween-80
[5] = dose: 100.0 mg/kg/injection, schedule: Q01DX009 (ip), vehicle: saline with Tween-80
[6] = dose: 200.0 mg/kg/injection, schedule: Q01DX009 (ip), vehicle: saline with Tween-80
[7] = dose: 60.0 mg/kg/injection, schedule: Q01DX005 (ip), vehicle: saline with Tween-80
[8] = dose: 120.0 mg/kg/injection, schedule: Q01DX005 (ip), vehicle: saline with Tween-80
[9] = dose: 50.0 mg/kg/injection, schedule: Q01DX005 (ip), vehicle: Klucel (hydroxypropylcellulose) (HPC)
[10] = dose: 100.0 mg/kg/injection, schedule: Q01DX005 (ip), vehicle: Klucel (hydroxypropylcellulose) (HPC)
[11] = dose: 25.0 mg/kg/injection, schedule: Q01DX009 (ip), vehicle: saline
[12] = dose: 100.0 mg/kg/injection, schedule: Q01DX001 (ip), vehicle: saline with Tween-80
[13] = dose: 200.0 mg/kg/injection, schedule: Q01DX001 (ip), vehicle: saline with Tween-80
[14] = dose: 400.0 mg/kg/injection, schedule: Q01DX001 (ip), vehicle: saline with Tween-80
[15] = dose: 25.0 mg/kg/injection, schedule: Q04DX003 (ip), vehicle: saline
[16] = dose: 100.0 mg/kg/injection, schedule: Q04DX003 (ip), vehicle: saline
[17] = dose: 60.0 mg/kg/injection, schedule: Q01DX005 (ip), vehicle: Klucel (hydroxypropylcellulose) (HPC)
[18] = dose: 120.0 mg/kg/injection, schedule: Q01DX005 (ip), vehicle: Klucel (hydroxypropylcellulose) (HPC)

In the case of `CN(C)C(=C[N+](=O)[O-])N(C)C`, the T/C [1] was 101 % of control, the T/C [2] was 103 % of control and the T/C [3] was 104 % of control.

`Cc1c(-c2ccccc2)n(O)c(-c2ccc(N(C)C)cc2)[n+]1[O-]` was tested, and the T/C [4] was 98 % of control, the T/C [5] was 92 % of control and the T/C [6] was 91 % of control.

`CCNC(=O)OCc1c(COC(=O)NCC)c(-c2ccc(F)cc2)n2c1CCC2` was tested, and the T/C (dose: 3.13 mg/kg/injection, schedule: Q01DX009 (ip), vehicle: distilled water + Tween-80) was 123 % of control.

`Nc1nc(N)c2nc(-c3ccc([N+](=O)[O-])cc3)c(Cl)nc2n1` was tested, and the T/C (dose: 15.0 mg/kg/injection, schedule: Q01DX005 (ip), vehicle: saline with Tween-80) was 98 % of control, the T/C (dose: 30.0 mg/kg/injection, schedule: Q01DX005 (ip), vehicle: saline with Tween-80) was 98 % of control and the T/C [7] was 95 % of control and 98 % of control. The T/C [8] was 92 % of control.

For `CC(=O)Oc1cc(OC(C)=O)c2c(c1)C(=O)c1cc(C)cc(OC(C)=O)c1C2=O`, the T/C (dose: 100.0 mg/kg/injection, schedule: Q04DX002 (ip), vehicle: saline with Tween-80) was 90 % of control and 96 % of control, the T/C (dose: 200.0 mg/kg/injection, schedule: Q04DX002 (ip), vehicle: saline with Tween-80) was 90 % of control and the T/C (dose: 400.0 mg/kg/injection, schedule: Q04DX002 (ip), vehicle: saline with Tween-80) was 90 % of control.

`C=Cc1c2ccccc2cc2ccccc12` was tested, and the T/C [9] was 109 % of control, the T/C [10] was 106 % of control and the T/C (dose: 200.0 mg/kg/injection, schedule: Q01DX005 (ip), vehicle: Klucel (hydroxypropylcellulose) (HPC)) was 100 % of control.

With `O=C1NC(=O)C(C2CCOC2=O)N1` (stereo unspecified) the T/C [4] was 106 % of control, the T/C [5] was 102 % of control and the T/C [6] was 106 % of control.

`COc1ccc(CSC(=S)Nc2ccc(C)c(C)c2)cc1` was tested, and the T/C (dose: 50.0 mg/kg/injection, schedule: Q01DX009 (ip), vehicle: suspension in saline) was 99 % of control, the T/C (dose: 100.0 mg/kg/injection, schedule: Q01DX009 (ip), vehicle: suspension in saline) was 100 % of control and the T/C (dose: 200.0 mg/kg/injection, schedule: Q01DX009 (ip), vehicle: suspension in saline) was 99 % of control.

With `O=S(=O)(O)c1cc2nonc2c2ccccc12` the T/C (dose: 50.0 mg/kg/injection, schedule: Q01DX005 (ip), vehicle: saline with Tween-80) was 98 % of control, the T/C (dose: 100.0 mg/kg/injection, schedule: Q01DX005 (ip), vehicle: saline with Tween-80) was 98 % of control and the T/C (dose: 200.0 mg/kg/injection, schedule: Q01DX005 (ip), vehicle: saline with Tween-80) was 95 % of control.

With `COP(=O)(OC)OC.COP(=O)(OC)OC.COP(=O)(OC)OC.COP(=O)(OC)OC.COP(=O)(OC)OC.[O-][Cl+3]([O-])([O-])O.[Zn+2]` the T/C [11] was 104 % of control and 114 % of control, the T/C [1] was 106 % of control and 112 % of control (2×) and the T/C [2] was 118 % of control and 119 % of control and 123 % of control.

In the case of `CCCCCCC(=O)/C=C/C=C/c1ccccc1`, the T/C (dose: 100.0 mg/kg/injection, schedule: Q04DX003 (ip), vehicle: saline with Tween-80) was 100 % of control, the T/C (dose: 200.0 mg/kg/injection, schedule: Q04DX003 (ip), vehicle: saline with Tween-80) was 103 % of control and the T/C (dose: 400.0 mg/kg/injection, schedule: Q04DX003 (ip), vehicle: saline with Tween-80) was 92 % of control.

For `Cc1nn(C(=S)S)c(C)c1N=Nc1cccc(Cl)c1Cl`, the T/C [12] was 91 % of control, the T/C [13] was 94 % of control and the T/C [14] was 108 % of control.

In the case of `Cc1cccc(C)c1-n1c(C)nc2c(c(C)c(C)n2-c2ccccc2)c1=N`, the T/C [9] was 101 % of control and the T/C [10] was 94 % of control.

In the case of `CC1(C)CC(=O)C([Se]C2=C(O)CC(C)(C)CC2=O)=C(O)C1`, the T/C (dose: 6.25 mg/kg/injection, schedule: Q01DX009 (ip), vehicle: saline) was 101 % of control, the T/C (dose: 12.5 mg/kg/injection, schedule: Q01DX009 (ip), vehicle: saline) was 104 % of control and the T/C [11] was 111 % of control.

For `COC(=O)CC1C=CC(OC)[C@@]2(C)C(=O)c3ccccc3C(=O)[C@@H]12` (stereo partly specified), the T/C [7] was 93 % of control, the T/C [8] was 106 % of control and the T/C (dose: 240.0 mg/kg/injection, schedule: Q01DX005 (ip), vehicle: saline with Tween-80) was 101 % of control.

With `C[C@@](O)(/C=C/[C@H]1CC=CC(=O)O1)[C@@H](C[C@@H](O)\C=C/C=C\C=C\CO)OP(=O)(O)O` the T/C (dose: 12.5 mg/kg/injection, schedule: Q01DX005 (ip), vehicle: other) was 150 % of control and 157 % of control and the T/C (dose: 25.0 mg/kg/injection, schedule: Q01DX005 (ip), vehicle: other) was 174 % of control.

`CC(C)N1C(=O)C2C3C=CC(C2C1=O)C1C2C(=O)N(C(C)C)C(=O)C2C31` (stereo unspecified) was tested, and the T/C [12] was 99 % of control, the T/C [13] was 96 % of control and the T/C [14] was 89 % of control.

For `NC1(c2ccccc2)CON=C(c2ccccc2)C1` (stereo unspecified), the T/C (dose: 6.25 mg/kg/injection, schedule: Q04DX003 (ip), vehicle: saline) was 109 % of control, the T/C (dose: 12.5 mg/kg/injection, schedule: Q04DX003 (ip), vehicle: saline) was 104 % of control and the T/C [15] was 102 % of control. For the same compound, the T/C [16] was 100 % of control.

In the case of `COC(=O)CC(CCCCCCCCCCCCC(C)C)OC(C)=O` (stereo unspecified), the T/C (dose: 8.13 mg/kg/injection, schedule: Q01DX005 (ip), vehicle: Klucel (hydroxypropylcellulose) (HPC)) was 94 % of control, the T/C (dose: 16.25 mg/kg/injection, schedule: Q01DX005 (ip), vehicle: Klucel (hydroxypropylcellulose) (HPC)) was 96 % of control and the T/C (dose: 32.5 mg/kg/injection, schedule: Q01DX005 (ip), vehicle: Klucel (hydroxypropylcellulose) (HPC)) was 99 % of control. The T/C (dose: 65.0 mg/kg/injection, schedule: Q01DX005 (ip), vehicle: Klucel (hydroxypropylcellulose) (HPC)) was 112 % of control.

With `OCCSc1nc2ccc(N=Cc3ccccc3O)cc2s1` the T/C (dose: 50.0 mg/kg/injection, schedule: Q01DX009 (ip), vehicle: Klucel (hydroxypropylcellulose) (HPC)) was 100 % of control, the T/C (dose: 100.0 mg/kg/injection, schedule: Q01DX009 (ip), vehicle: Klucel (hydroxypropylcellulose) (HPC)) was 100 % of control and the T/C (dose: 200.0 mg/kg/injection, schedule: Q01DX009 (ip), vehicle: Klucel (hydroxypropylcellulose) (HPC)) was 90 % of control.

In the case of `Cc1cccc(NC(=O)NC2CCCC(C)C2)c1` (stereo unspecified), the T/C [1] was 98 % of control, the T/C [2] was 93 % of control and the T/C [3] was 91 % of control.

`C=C(NC(C)=O)C(=O)O` was tested, and the T/C (dose: 6.25 mg/kg/injection, schedule: Q01DX009 (ip), vehicle: saline with Tween-80) was 103 % of control, the T/C (dose: 12.5 mg/kg/injection, schedule: Q01DX009 (ip), vehicle: saline with Tween-80) was 101 % of control and 86 % of control and the T/C (dose: 12.5 mg/kg/injection, schedule: Q04DX003 (ip), vehicle: saline with Tween-80) was 104 % of control. The T/C (dose: 25.0 mg/kg/injection, schedule: Q01DX009 (ip), vehicle: saline with Tween-80) was 108 % of control, the T/C (dose: 25.0 mg/kg/injection, schedule: Q04DX003 (ip), vehicle: saline with Tween-80) was 103 % of control and the T/C (dose: 50.0 mg/kg/injection, schedule: Q04DX003 (ip), vehicle: saline with Tween-80) was 101 % of control. For the same compound, the T/C [12] was 101 % of control.

In the case of `[NH-]C(CCC(N)=O)C(=O)O.[NH-]C(CCCN=C(N)N)C(=O)O.[Zn+2]` (stereo unspecified), the T/C (dose: 25.0 mg/kg/injection, schedule: Q01DX005 (ip), vehicle: saline) was 100 % of control and 106 % of control, the T/C (dose: 50.0 mg/kg/injection, schedule: Q01DX005 (ip), vehicle: saline) was 103 % of control and 106 % of control and the T/C (dose: 100.0 mg/kg/injection, schedule: Q01DX005 (ip), vehicle: saline) was 110 % of control and 119 % of control.

With `Nc1ncnc2[nH]c(=O)[nH]c12` the T/C [15] was 95 % of control, the T/C (dose: 50.0 mg/kg/injection, schedule: Q04DX003 (ip), vehicle: saline) was 104 % of control and the T/C [16] was 104 % of control.

With `CNC(=S)SC1=NS(=O)(=O)c2ccccc2N1` the T/C (dose: 30.0 mg/kg/injection, schedule: Q01DX005 (ip), vehicle: Klucel (hydroxypropylcellulose) (HPC)) was 111 % of control, the T/C [17] was 99 % of control and 110 % of control and the T/C [18] was 116 % of control and 117 % of control.

For `C[Si](C)(C)Cn1cc(F)c(=O)n(C[Si](C)(C)C)c1=O`, the T/C [17] was 103 % of control, the T/C [18] was 103 % of control and the T/C (dose: 240.0 mg/kg/injection, schedule: Q01DX005 (ip), vehicle: Klucel (hydroxypropylcellulose) (HPC)) was 97 % of control.
